Assay results from ChEMBL document CHEMBL3885881, “DrugMatrix”.

Species: Rattus norvegicus
Assay: DrugMatrix - Regimen: Daily Repeat
Assay type: toxicity, organism-based, Sprague-Dawley
Set-up: regimen Daily Repeat, gender Male, age 6-8 weeks
Settings: in vivo, sc, route subcutaneous, […]; for ABSOLUTE BASOPHIL / ABSOLUTE EOSINOPHIL / ABSOLUTE LYMPHOCYTE / ABSOLUTE MONOCYTE / ABSOLUTE SEGMENTED NEUTROPHIL / BASOPHIL / EOSINOPHIL / ERYTHROCYTE COUNT / HEMATOCRIT / HEMOGLOBIN / LEUKOCYTE COUNT / LYMPHOCYTE / MEAN CORPUSCULAR HEMOGLOBIN / MEAN CORPUSCULAR HEMOGLOBIN CONCENTRATION / MEAN CORPUSCULAR VOLUME / MONOCYTE / NEUTROPHIL / NUCLEATED RED BLOOD CELLS / PLATELET COUNT: tissue Blood; for ALANINE AMINOTRANSFERASE / ALBUMIN / ALKALINE PHOSPHATASE / ASPARTATE AMINOTRANSFERASE / BLOOD UREA NITROGEN / CARBON DIOXIDE / CHLORIDE / CHOLESTEROL / CREATINE PHOSPHOKINASE / CREATININE / GLUCOSE / LACTATE DEHYDROGENASE / LIPASE / PHOSPHORUS / POTASSIUM / SODIUM / TOTAL BILIRUBIN / TOTAL PROTEIN / URIC ACID: tissue Plasma
[1] = 0 mg/kg, 72 h, dose level Control, time 3 day
[2] = 0 mg/kg, 120 h, dose level Control, time 5 day
[3] = 1915 mg/kg, 72 h, dose level High, time 3 day
[4] = 1915 mg/kg, 120 h, dose level High, time 5 day

Compound: Cc1cc(O)cc(C)c1Cl [CHLOROXYLENOL]
- ABSOLUTE BASOPHIL [1]: 0 CELLS/uL
- ABSOLUTE EOSINOPHIL [1]: 92.33 CELLS/uL
- ABSOLUTE LYMPHOCYTE [1]: 12247.5 CELLS/uL
- ABSOLUTE MONOCYTE [1]: 389.67 CELLS/uL
- ABSOLUTE SEGMENTED NEUTROPHIL [1]: 1320.5 CELLS/uL
- BASOPHIL [1]: 0%
- EOSINOPHIL [1]: 0.67%
- ERYTHROCYTE COUNT [1]: 5.45 x10E6/uL
- HEMATOCRIT [1]: 34.85%
- HEMOGLOBIN [1]: 12.97 G/DL
- LEUKOCYTE COUNT [1]: 14.05 x10E3/uL
- LYMPHOCYTE [1]: 87.33%
- MEAN CORPUSCULAR HEMOGLOBIN [1]: 23.78 pg
- MEAN CORPUSCULAR HEMOGLOBIN CONCENTRATION [1]: 37.22 G/DL
- MEAN CORPUSCULAR VOLUME [1]: 63.93 fL
- MONOCYTE [1]: 2.67%
- NEUTROPHIL [1]: 9.33%
- NUCLEATED RED BLOOD CELLS [1]: 0 /100WBC
- PLATELET COUNT [1]: 1174 x10E3/uL
- ALANINE AMINOTRANSFERASE [1]: 48.83 u/L
- ALBUMIN [1]: 4.23 G/DL
- ALKALINE PHOSPHATASE [1]: 351.5 u/L
- ASPARTATE AMINOTRANSFERASE [1]: 90 u/L
- BLOOD UREA NITROGEN [1]: 15.33 mg/dL
- CARBON DIOXIDE [1]: 23 mmol/L
- CHLORIDE [1]: 103.5 MEQ/L
- CHOLESTEROL [1]: 70.5 mg/dL
- CREATINE PHOSPHOKINASE [1]: 651.83 u/L
- CREATININE [1]: 0.22 mg/dL
- GLUCOSE [1]: 180.67 mg/dL
- LACTATE DEHYDROGENASE [1]: 165 u/L
- LIPASE [1]: 9.33 u/L
- PHOSPHORUS [1]: 12.03 mg/dL
- POTASSIUM [1]: 6.17 MEQ/L
- SODIUM [1]: 142.62 MEQ/L
- TOTAL BILIRUBIN [1]: 0.2 mg/dL
- TOTAL PROTEIN [1]: 5.73 G/DL
- URIC ACID [1]: 1.77 mg/dL
- ABSOLUTE BASOPHIL [2]: 0 CELLS/uL
- ABSOLUTE EOSINOPHIL [2]: 0 CELLS/uL
- ABSOLUTE LYMPHOCYTE [2]: 12736.67 CELLS/uL
- ABSOLUTE MONOCYTE [2]: 253.5 CELLS/uL
- ABSOLUTE SEGMENTED NEUTROPHIL [2]: 1193.17 CELLS/uL
- BASOPHIL [2]: 0%
- EOSINOPHIL [2]: 0%
- ERYTHROCYTE COUNT [2]: 5.72 x10E6/uL
- HEMATOCRIT [2]: 36.05%
- HEMOGLOBIN [2]: 13.62 G/DL
- LEUKOCYTE COUNT [2]: 14.18 x10E3/uL
- LYMPHOCYTE [2]: 89.33%
- MEAN CORPUSCULAR HEMOGLOBIN [2]: 23.83 pg
- MEAN CORPUSCULAR HEMOGLOBIN CONCENTRATION [2]: 37.8 G/DL
- MEAN CORPUSCULAR VOLUME [2]: 63.05 fL
- MONOCYTE [2]: 1.83%
- NEUTROPHIL [2]: 8.83%
- NUCLEATED RED BLOOD CELLS [2]: 0 /100WBC
- PLATELET COUNT [2]: 1322.17 x10E3/uL
- ALANINE AMINOTRANSFERASE [2]: 48.83 u/L
- ALBUMIN [2]: 4.27 G/DL
- ALKALINE PHOSPHATASE [2]: 295.17 u/L
- ASPARTATE AMINOTRANSFERASE [2]: 75.83 u/L
- BLOOD UREA NITROGEN [2]: 15.5 mg/dL
- CARBON DIOXIDE [2]: 30.5 mmol/L
- CHLORIDE [2]: 102.33 MEQ/L
- CHOLESTEROL [2]: 76.17 mg/dL
- CREATINE PHOSPHOKINASE [2]: 205.5 u/L
- CREATININE [2]: 0.2 mg/dL
- GLUCOSE [2]: 149.67 mg/dL
- LACTATE DEHYDROGENASE [2]: 124.5 u/L
- LIPASE [2]: 10 u/L
- PHOSPHORUS [2]: 10.93 mg/dL
- POTASSIUM [2]: 6.59 MEQ/L
- SODIUM [2]: 143.1 MEQ/L
- TOTAL BILIRUBIN [2]: 0.2 mg/dL
- TOTAL PROTEIN [2]: 6.05 G/DL
- URIC ACID [2]: 1.45 mg/dL
- ABSOLUTE BASOPHIL [3]: 0 CELLS/uL
- ABSOLUTE EOSINOPHIL [3]: 0 CELLS/uL
- ABSOLUTE LYMPHOCYTE [3]: 13518.33 CELLS/uL
- ABSOLUTE MONOCYTE [3]: 372.33 CELLS/uL
- ABSOLUTE SEGMENTED NEUTROPHIL [3]: 2242.67 CELLS/uL
- BASOPHIL [3]: 0%
- EOSINOPHIL [3]: 0%
- ERYTHROCYTE COUNT [3]: 5.43 x10E6/uL
- HEMATOCRIT [3]: 33.13%
- HEMOGLOBIN [3]: 12.03 G/DL
- LEUKOCYTE COUNT [3]: 16.13 x10E3/uL
- LYMPHOCYTE [3]: 84.33%
- MEAN CORPUSCULAR HEMOGLOBIN [3]: 22.17 pg
- MEAN CORPUSCULAR HEMOGLOBIN CONCENTRATION [3]: 36.33 G/DL
- MEAN CORPUSCULAR VOLUME [3]: 61.07 fL
- MONOCYTE [3]: 2.33%
- NEUTROPHIL [3]: 13.33%
- NUCLEATED RED BLOOD CELLS [3]: 0 /100WBC
- PLATELET COUNT [3]: 1126.33 x10E3/uL
- ALANINE AMINOTRANSFERASE [3]: 50.33 u/L
- ALBUMIN [3]: 3.67 G/DL
- ALKALINE PHOSPHATASE [3]: 250.33 u/L
- ASPARTATE AMINOTRANSFERASE [3]: 81.67 u/L
- BLOOD UREA NITROGEN [3]: 18 mg/dL
- CARBON DIOXIDE [3]: 24.33 mmol/L
- CHLORIDE [3]: 104.33 MEQ/L
- CHOLESTEROL [3]: 76.67 mg/dL
- CREATINE PHOSPHOKINASE [3]: 276 u/L
- CREATININE [3]: 0.18 mg/dL
- GLUCOSE [3]: 175 mg/dL
- LACTATE DEHYDROGENASE [3]: 84.67 u/L
- LIPASE [3]: 8.67 u/L
- PHOSPHORUS [3]: 11.43 mg/dL
- POTASSIUM [3]: 6.05 MEQ/L
- SODIUM [3]: 145.23 MEQ/L
- TOTAL BILIRUBIN [3]: 0.13 mg/dL
- TOTAL PROTEIN [3]: 5.67 G/DL
- URIC ACID [3]: 2.13 mg/dL
- ABSOLUTE BASOPHIL [4]: 0 CELLS/uL
- ABSOLUTE EOSINOPHIL [4]: 164.67 CELLS/uL
- ABSOLUTE LYMPHOCYTE [4]: 16889.67 CELLS/uL
- ABSOLUTE MONOCYTE [4]: 1259.67 CELLS/uL
- ABSOLUTE SEGMENTED NEUTROPHIL [4]: 6552.67 CELLS/uL
- BASOPHIL [4]: 0%
- EOSINOPHIL [4]: 0.67%
- ERYTHROCYTE COUNT [4]: 5.49 x10E6/uL
- HEMATOCRIT [4]: 33.1%
- HEMOGLOBIN [4]: 12.6 G/DL
- LEUKOCYTE COUNT [4]: 24.87 x10E3/uL
- LYMPHOCYTE [4]: 68%
- MEAN CORPUSCULAR HEMOGLOBIN [4]: 23.07 pg
- MEAN CORPUSCULAR HEMOGLOBIN CONCENTRATION [4]: 38.1 G/DL
- MEAN CORPUSCULAR VOLUME [4]: 60.43 fL
- MONOCYTE [4]: 5%
- NEUTROPHIL [4]: 26.33%
- NUCLEATED RED BLOOD CELLS [4]: 0 /100WBC
- PLATELET COUNT [4]: 1493 x10E3/uL
- ALANINE AMINOTRANSFERASE [4]: 55.67 u/L
- ALBUMIN [4]: 3.17 G/DL
- ALKALINE PHOSPHATASE [4]: 330 u/L
- ASPARTATE AMINOTRANSFERASE [4]: 87.67 u/L
- BLOOD UREA NITROGEN [4]: 18.33 mg/dL
- CARBON DIOXIDE [4]: 32 mmol/L
- CHLORIDE [4]: 103.67 MEQ/L
- CHOLESTEROL [4]: 77 mg/dL
- CREATINE PHOSPHOKINASE [4]: 151 u/L
- CREATININE [4]: 0.22 mg/dL
- GLUCOSE [4]: 164 mg/dL
- LACTATE DEHYDROGENASE [4]: 64 u/L
- LIPASE [4]: 8 u/L
- PHOSPHORUS [4]: 11.27 mg/dL
- POTASSIUM [4]: 6.34 MEQ/L
- SODIUM [4]: 145.63 MEQ/L
- TOTAL BILIRUBIN [4]: 0.13 mg/dL
- TOTAL PROTEIN [4]: 5.33 G/DL
- URIC ACID [4]: 1.83 mg/dL
